Our source for the Clint values is patent publication US9149462B2, “Pyrazole compounds acting against allergic, inflammatory and immune disorders” (Glaxo Group Limited, priority 2010, dated 2015).

What all share (assay type): in vitro ADME
The nature of series [1]: In vitro microsomal clearance, dog (Beagle).
Series [2] can be described thus: In vitro microsomal clearance, human.
Series [3] can be described thus: In vitro microsomal clearance, rat (Wistar Han).
Series [4] is described as follows: In vitro microsomal clearance, rat (CD).

With `[2H]C([2H])(c1c(F)cccc1C(F)(F)F)n1cc(NC(=O)c2c(F)cccc2F)cn1` [Example 29, 2,6-Difluoro-N-(1-(2-fluoro-6-(trifluoromethyl)-d2-benzyl)-1H-pyrazol-4-yl)benzamide], the Clint in series [1] is given as 0.80 mL/min g liver; in series [2], below 0.5 mL/min g liver; in series [3], 1.16 mL/min g liver; in series [4], 0.95 mL/min g liver.
Consider `O=C(Nc1cnn(Cc2c(F)cccc2C(F)(F)F)c1)c1c(F)cccc1F` [Example 6, 2,6-Difluoro-N-(1-{[2-fluoro-6-(trifluoromethyl)phenyl]methyl}-1H-pyrazol-4-yl)benzamide], for which the Clint in series [1] amounted to 0.98 mL/min g liver; in series [2], 0.80 mL/min g liver; in series [3], 2.05 mL/min g liver; in series [4], 1.67 mL/min g liver.
